In ChEMBL document CHEMBL3045316, “Synthesis and analgesic activity of new heterocyclic compounds derived from monoterpenoids” (Med Chem Res, 2013):

Legend:
Mus musculus [1] = assay: Analgesic activity in albino Mus musculus (mouse) assessed as protection against thermal stimulus-induced paw licking and jumping behaviour at 10 mg/kg, po measured after 1 hr by hot plate assay; type: functional
Mus musculus [2] = assay: Analgesic activity in albino Mus musculus (mouse) assessed as inhibition of acetic acid-induced abdominal writhings at 10 mg/kg, po administered 1 hr before acetic acid injection measured for 5 to 8 min; type: functional; details: Abdomen
Mus musculus [3] = assay: Analgesic activity in albino Mus musculus (mouse) assessed as proportion of animals without pain behaviour symptoms at 10 mg/kg, po administered 1 hr before acetic acid injection measured for 5 to 8 min; type: functional
Mus musculus [4] = assay: Selectivity index, ratio of LD50 for albino Mus musculus (mouse) to ED50 for albino Mus musculus (mouse) by hot-plate test
Mus musculus [5] = assay: Selectivity index, ratio of LD50 for albino Mus musculus (mouse) to ED50 for albino Mus musculus (mouse) by acetic acid-induced writhing test
[6] = Acute toxicity in albino Mus musculus (mouse) assessed as mortality administered intragastrically by kreber method; type: organism-based; details: in vivo, po
Mus musculus [7] = assay: Analgesic activity in po dosed albino Mus musculus (mouse) assessed as protection against thermal stimulus-induced paw licking and jumping behaviour measured after 1 hr by hot plate assay; type: functional
Mus musculus [8] = assay: Analgesic activity in po dosed albino Mus musculus (mouse) assessed as inhibition of acetic acid-induced abdominal writhings administered 1 hr before acetic acid injection measured for 5 to 8 min; type: functional; details: Abdomen

COc1cc([C@@H]2CC(C)(C)[C@@H]3CC=C(C)[C@@H](O)[C@@H]3O2)cc(OC)c1OC
Activity (Mus musculus [1]): 16% | inhibition in vivo at 10 mg/kg (Mus musculus [2]): 13%

COc1cc([C@H]2O[C@@]3(C)C[C@H](c4cc(OC)c(OC)c(OC)c4)O[C@H]4C(=O)[C@H](C)[C@H]2C[C@H]43)cc(OC)c1OC
Activity (Mus musculus [1]): 19% | Activity (Mus musculus [3]): 25% | inhibition in vivo at 10 mg/kg (Mus musculus [2]): 50%

COc1ccc([C@H]2O[C@@]3(C)C[C@H](c4ccc(OC)c(OC)c4OC)O[C@H]4C(=O)[C@H](C)[C@H]2C[C@H]43)c(OC)c1OC
Activity (Mus musculus [1]): 9% | inhibition in vivo at 10 mg/kg (Mus musculus [2]): 23%

COc1cc([C@@H]2C[C@@]3(C)O[C@H]4C(C)=CC[C@@H]3[C@H]4O2)cc(OC)c1OC
Ratio LD50/ED50 (Mus musculus [4]): 60 | Ratio LD50/ED50 (Mus musculus [5]): 60 | LD50 [6]: 500 mg/kg | ED50 (Mus musculus [7]): 25 mg/kg | ED50 (Mus musculus [8]): 22 mg/kg | Activity (Mus musculus [1]): 72% | Activity (Mus musculus [3]): 25% | inhibition in vivo at 10 mg/kg (Mus musculus [2]): 65%

CC(=O)Oc1ccccc1C(=O)O [ASPIRIN]
Ratio LD50/ED50 (Mus musculus [5]): 10.3

O=C([O-])Cc1ccccc1Nc1c(Cl)cccc1Cl.[Na+] [DICLOFENAC SODIUM]
Activity (Mus musculus [1]): 64% | Activity (Mus musculus [3]): 87.5% | inhibition in vivo at 10 mg/kg (Mus musculus [2]): 90%
